Results: ChEMBL document CHEMBL4825697, “Optimization and SAR research at the piperazine and phenyl rings of JNJ4796 as new anti-influenza A virus agents, part 1” (Eur J Med Chem, 2021)

Key:
[1] = system: Influenza A virus; assay: Antiviral activity against Influenza A virus (H1N1) infected in dog MDCK cells assessed as inhibition of surface glycoprotein hemagglutinin; assay type: functional, organism-based
[2] = Cytotoxicity against dog MDCK cells assessed as reduction in cell viability; assay type: cell-based, Canis lupus familiaris
[3] = Selectivity index, ratio of CC50 for cytotoxicity against dog MDCK cells to IC50 for antiviral activity against Influenza A virus […] infected in dog MDCK cells; assay type: toxicity, cell-based; conditions: read-out: Selectivity Index
[4] = Half life in Balb/c mouse at 25 mg/kg, po administered as single dose; assay type: ADME, organism-based; conditions: in vivo
[5] = Tmax in Balb/c mouse at 25 mg/kg, po administered as single dose; assay type: ADME, organism-based; conditions: in vivo
[6] = Cmax in Balb/c mouse at 25 mg/kg, po administered as single dose; assay type: ADME, organism-based; design: route oral, dose 25 mg/kg; conditions: in vivo
[7] = AUC (0 to infinity) in Balb/c mouse at 25 mg/kg, po administered as single dose; assay type: ADME, organism-based; design: time infinity, route oral, dose 25 mg/kg; conditions: in vivo
[8] = target: hERG (KCNH2) (Homo sapiens, UniProt Q12809); assay: Inhibition of human ERG at 10 uM
hERG (KCNH2), sequence (Q12809 whole entry): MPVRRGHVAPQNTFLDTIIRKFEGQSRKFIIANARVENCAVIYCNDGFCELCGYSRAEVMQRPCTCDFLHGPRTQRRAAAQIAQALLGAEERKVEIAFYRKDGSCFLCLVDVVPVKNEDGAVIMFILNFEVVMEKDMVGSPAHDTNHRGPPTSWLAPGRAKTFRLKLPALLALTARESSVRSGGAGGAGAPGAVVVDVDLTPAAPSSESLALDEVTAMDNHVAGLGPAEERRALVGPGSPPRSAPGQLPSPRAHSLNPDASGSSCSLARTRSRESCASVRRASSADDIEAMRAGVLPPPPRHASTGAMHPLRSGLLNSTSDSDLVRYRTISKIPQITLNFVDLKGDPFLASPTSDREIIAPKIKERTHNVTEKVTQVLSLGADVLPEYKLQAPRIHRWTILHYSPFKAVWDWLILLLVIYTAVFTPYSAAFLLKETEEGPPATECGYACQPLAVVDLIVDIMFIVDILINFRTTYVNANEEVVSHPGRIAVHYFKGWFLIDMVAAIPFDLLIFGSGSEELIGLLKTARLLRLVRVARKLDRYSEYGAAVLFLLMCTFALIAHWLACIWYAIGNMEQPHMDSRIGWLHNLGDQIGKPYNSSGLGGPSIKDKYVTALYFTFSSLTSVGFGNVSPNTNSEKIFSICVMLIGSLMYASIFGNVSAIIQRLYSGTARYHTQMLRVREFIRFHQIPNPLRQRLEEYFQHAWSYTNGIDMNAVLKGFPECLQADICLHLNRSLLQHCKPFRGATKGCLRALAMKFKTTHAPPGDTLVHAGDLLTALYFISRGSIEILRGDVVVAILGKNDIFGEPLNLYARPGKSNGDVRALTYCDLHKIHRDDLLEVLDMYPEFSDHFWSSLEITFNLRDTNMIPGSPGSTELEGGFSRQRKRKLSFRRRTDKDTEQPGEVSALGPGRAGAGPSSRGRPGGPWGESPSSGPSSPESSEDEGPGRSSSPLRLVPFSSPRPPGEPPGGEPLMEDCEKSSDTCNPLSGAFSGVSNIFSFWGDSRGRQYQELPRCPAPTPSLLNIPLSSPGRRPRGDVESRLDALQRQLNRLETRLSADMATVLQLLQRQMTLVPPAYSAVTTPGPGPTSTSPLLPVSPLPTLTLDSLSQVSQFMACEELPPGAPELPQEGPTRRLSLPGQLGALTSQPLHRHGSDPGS

CC(=O)Nc1ccc2oc(-c3ccnc(C(=O)N4CCN([C@H](c5ccccc5)c5nnn(C)n5)CC4)c3)nc2c1
IC50 [1]: 0.04 µM | CC50 [2]: 144 µM | selectivity ratio [3]: 3590

CC(=O)Nc1ccc2oc(-c3ccnc(C(=O)N4CCN(C(c5ccc(C(F)(F)F)cc5)c5nnn(C)n5)CC4)c3)nc2c1 (stereo not drawn)
IC50 [1]: 12.8 µM | CC50 [2]: > 50 µM

CC(=O)Nc1ccc2oc(-c3ccnc(C(=O)N4CCN(C(c5nnn(C)n5)c5ccccc5F)CC4)c3)nc2c1 (stereo not drawn)
IC50 [1]: 7.41 µM | CC50 [2]: > 50 µM

CC(=O)Nc1ccc2oc(-c3ccnc(C(=O)N4CCC5(CC4)CN(C(c4ccccc4)c4nnn(C)n4)C5)c3)nc2c1 (stereo not drawn)
IC50 [1]: > 50 µM | CC50 [2]: > 50 µM

CC(=O)Nc1ccc2oc(-c3ccnc(C(=O)N4CC5CC4CN5C(c4ccccc4)c4nnn(C)n4)c3)nc2c1 (stereo not drawn)
IC50 [1]: 18.5 µM | CC50 [2]: > 50 µM

CC(=O)Nc1ccc2oc(-c3ccnc(C(=O)N4CCN(C(c5ccc(C)cc5)c5nnn(C)n5)CC4)c3)nc2c1 (stereo not drawn)
IC50 [1]: 4.28 µM | CC50 [2]: > 50 µM

CC(=O)Nc1ccc2oc(-c3ccnc(C(=O)N4CCN(C(c5ccc(Cl)cc5)c5nnn(C)n5)CC4)c3)nc2c1 (stereo not drawn)
IC50 [1]: 1.71 µM | CC50 [2]: > 50 µM

CC(=O)Nc1ccc2oc(-c3ccnc(C(=O)N4CCN(C(c5ccc([N+](=O)[O-])cc5)c5nnn(C)n5)CC4)c3)nc2c1 (stereo not drawn)
IC50 [1]: 7.41 µM | CC50 [2]: > 50 µM

NC(=O)c1ncn([C@@H]2O[C@H](CO)[C@@H](O)[C@H]2O)n1 [RIBAVIRIN]
IC50 [1]: 4.28 µM | CC50 [2]: > 200 µM | selectivity ratio [3]: > 46

CC(=O)Nc1ccc2oc(-c3ccnc(C(=O)N4CCN(C(c5ccc(OC(F)(F)F)cc5)c5nnn(C)n5)CC4)c3)nc2c1 (stereo not drawn)
IC50 [1]: 3.18 µM | CC50 [2]: > 50 µM

COc1ccc(C(c2nnn(C)n2)N2CCN(C(=O)c3cc(-c4nc5cc(NC(C)=O)ccc5o4)ccn3)CC2)cc1 (stereo not drawn)
IC50 [1]: 12 µM | CC50 [2]: > 50 µM

CCOC(=O)C1=C[C@@H](OC(CC)CC)[C@H](NC(C)=O)[C@@H](N)C1 [OSELTAMIVIR]
IC50 [1]: 3.44 µM | CC50 [2]: > 200 µM | selectivity ratio [3]: > 58

CC(=O)Nc1ccc2oc(-c3ccnc(C(=O)N4CC5(CCN(C(c6ccccc6)c6nnn(C)n6)CC5)C4)c3)nc2c1 (stereo not drawn)
IC50 [1]: 7.41 µM | CC50 [2]: 32 µM

CC(=O)Nc1ccc2oc(-c3ccnc(C(=O)N4CCN([C@H](c5ccc(F)cc5)c5nnn(C)n5)CC4)c3)nc2c1
IC50 [1]: 0.03 µM | CC50 [2]: > 200 µM | selectivity ratio [3]: > 6670 | half-life [4]: 5.84 h | Tmax [5]: 0.33 h | Cmax [6]: 866 ng/mL | AUC(0-inf) [7]: 1910 ng·h/mL | inhibition at 10 µM [8]: 13.2%

CC(=O)Nc1ccc2oc(-c3ccnc(C(=O)N4CCN([C@@H](c5ccc(F)cc5)c5nnn(C)n5)CC4)c3)nc2c1
IC50 [1]: 5.51 µM | CC50 [2]: > 200 µM | selectivity ratio [3]: > 36

CC(=O)Nc1ccc2oc(-c3ccnc(C(=O)N4CCN(C(c5ccccc5)c5nnn(C)n5)CC4)c3)nc2c1 (racemic)
IC50 [1]: 0.35 µM | CC50 [2]: > 50 µM | half-life [4]: 3.69 h | Tmax [5]: 0.25 h | Cmax [6]: 572 ng/mL | AUC(0-inf) [7]: 1210 ng·h/mL | inhibition at 10 µM [8]: 53.8%

CC(=O)Nc1ccc2oc(-c3ccnc(C(=O)N4CCN(C(c5ccc(F)cc5)c5nnn(C)n5)CC4)c3)nc2c1 (stereo not drawn)
IC50 [1]: 0.27 µM | CC50 [2]: > 50 µM

CC(=O)Nc1ccc2oc(-c3ccnc(C(=O)N4CCN([C@@H](c5ccccc5)c5nnn(C)n5)CC4)c3)nc2c1
IC50 [1]: 1.9 µM | CC50 [2]: > 200 µM | selectivity ratio [3]: > 105

CC(=O)Nc1ccc2oc(-c3ccnc(C(=O)N4CCC5(CC4)CCN(C(c4ccccc4)c4nnn(C)n4)CC5)c3)nc2c1 (stereo not drawn)
IC50 [1]: > 50 µM | CC50 [2]: > 50 µM

CC(=O)Nc1ccc2oc(-c3ccnc(C(=O)N4CCN(C(c5ccc(Br)cc5)c5nnn(C)n5)CC4)c3)nc2c1 (stereo not drawn)
IC50 [1]: 1.43 µM | CC50 [2]: > 50 µM

CC(=O)Nc1ccc2oc(-c3ccnc(C(=O)N4CCN(C(c5cccc(F)c5)c5nnn(C)n5)CC4)c3)nc2c1 (stereo not drawn)
IC50 [1]: 2.47 µM | CC50 [2]: > 50 µM
